Source: ChEMBL document CHEMBL1201862, “PubChem BioAssay data set” (2004)
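Grown in 96-well plates, cells were treated for 48 hours with each compound at five concentrations. Insufficient inhibition: endpoint recorded as highest concentration tested. Abbreviation: GI50, concentration required for 50% inhibition of growth.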 Activity calls are given as the source filed them. Cut-off read from the data, not from the text of the source: active = GI50 up to about 1.1 µM and inactive = higher.

What was measured:
Assay in all cases: NCI tumour cell line growth inhibition, 48 h
DLD-1 = test system: DLD-1
DMS-114 = test system: DMS-114
DMS-273 = test system: DMS-273
HOP-18 = test system: HOP-18
KM-20L2 = test system: KM-20L2
M19-MEL = test system: M19-MEL
RXF 631 = test system: RXF 631
SNB-78 = test system: SNB-78
XF498 = test system: XF498

Measured: GI50

CNC(=O)OCc1nc(SSc2nc(COC(=O)NC)c(COC(=O)NC)n2C)n(C)c1COC(=O)NC
inactive: DLD-1 > 100 µM | DMS-114 > 100 µM | DMS-273 > 100 µM | HOP-18 > 100 µM | KM-20L2 > 100 µM | M19-MEL > 100 µM | RXF 631 > 100 µM | SNB-78 > 100 µM | XF498 > 100 µM
